Measurements taken from patent US11116713B2, “Oral care compositions and methods” (priority 2018, dated 2021).

System: Streptococcus mutans
Experiment: Killing efficacy against Streptococcus mutans in vitro (cfu count after treatment)
Format: cell-based
Conditions: inoculum 2.71×10^4 cfu/ml, FIG. 1
Procedure: Because the primary bacterium responsible for dental caries (cavities) is Streptococcus mutans, the killing efficacy of agmatine and EGCG, alone and in combination, was determined against Streptococcus mutans. Killing efficacy was measured in vitro using Streptococcus mutans cells grown in brain heart infusion (BHI) plates for at least 24-48 hours at 37° C. Each experiment was initiated by collecting an individual colony from the BHI plate and growning the colony overnight at 37° C. and 5% CO2 in BHI liquid media. Streptococcus mutans cells were then passaged 2 times in chemically defined media for Streptococcus mutans and grown overnight at 37° C. and 5% CO2. The absorbance at A600 of the culture was measured to determine the bacterial cell concentration of the inoculum. Once the desired bacterial concentration was reached, Streptococcus mutans inoculum was plated on cell culture plates previously prepared with a range of concentrations of EGCG alone, agmatine alone, or EGCG and agmatine in combination. The plates streaked with inoculum were incubated for at least 24 hours at 37° C. and 5% CO2. After incubation, the cells were transferred to sterile tubes, plated on BHI plate using an Autoplate 4000, and incubated for at least 36 hours at 37° C. Colonies were counted and colony forming units (cfu) were calculated as recommended by Autoplate 4000 guide. […]

Row | Structure (SMILES) | bacterial concentration of Streptococcus mutans following treatment (7.5 mg/ml agmatine alone) | bacterial concentration of Streptococcus mutans following treatment (50 μg/ml EGCG alone)
1 | NCCCCN=C(N)N [agmatine, (4-aminobutyl)guanidine] | 6.50×10^1 cfu/ml | 
2 | O=C(O[C@@H]1Cc2c(O)cc(O)cc2O[C@@H]1c1cc(O)c(O)c(O)c1)c1cc(O)c(O)c(O)c1 [EGCG, epigallocatechin gallate] |  | 6.00×10^1 cfu/ml
